# Reference: the NIST ThermoML archive (doi:10.1016/j.jct.2006.01.015)
# ± gives the expanded uncertainty stated by the source.
# Key:
# [1] = 101 kPa, Liquid
# [2] = xn = mol fraction of the nth substance listed; conditions: 101 kPa, Liquid
Structure (SMILES),mass density ([1]; 293.15 K) [kg/m3],mass density ([1]; 298.15 K) [kg/m3],mass density ([1]; 303.15 K) [kg/m3],mass density ([1]; 308.15 K) [kg/m3],mass density ([1]; 313.15 K) [kg/m3],mass density ([1]; 318.15 K) [kg/m3],"mass density ([2]; 293.15 K, x1 = 1) [kg/m3]","mass density ([2]; 298.15 K, x1 = 1) [kg/m3]","mass density ([2]; 303.15 K, x1 = 1) [kg/m3]","mass density ([2]; 308.15 K, x1 = 1) [kg/m3]","mass density ([2]; 313.15 K, x1 = 1) [kg/m3]","mass density ([2]; 318.15 K, x1 = 1) [kg/m3]",other results
NC=O [formamide],1133 ± 1.2,1129 ± 1.2,1125 ± 1.2,1121 ± 1.3,1117 ± 1.3,1113 ± 1.4,,,,,,,
CC#N [acetonitrile] + CNC(C)=O,,,,,,,782.1 ± 0.7,776.8 ± 0.7,771.5 ± 0.8,766.3 ± 0.8,761 ± 0.8,755.7 ± 0.9,
CNC(C)=O [N-methylacetamide],958.4 ± 0.9,954.2 ± 1,950.1 ± 1,945.9 ± 1,941.7 ± 1.1,937.6 ± 1.1,,,,,,,
CC#N [acetonitrile] + NC=O,,,,,,,782.1 ± 0.7,776.8 ± 0.7,771.5 ± 0.8,766.3 ± 0.8,761 ± 0.8,755.7 ± 0.9,
"CC(=O)N(C)C [N,N-dimethylethanamide]",941 ± 0.9,936.5 ± 0.9,932 ± 1,927.6 ± 1,923.1 ± 1,918.6 ± 1.1,,,,,,,
CC#N [acetonitrile] + CC(=O)N(C)C,,,,,,,782.1 ± 0.7,776.8 ± 0.7,771.5 ± 0.8,766.3 ± 0.8,761 ± 0.8,755.7 ± 0.9,
CN(C)C=O [dimethylformamide],949.1 ± 0.9,944.6 ± 0.9,940.1 ± 1,935.7 ± 1,931.2 ± 1,926.7 ± 1.1,,,,,,,
CN(C)C=O [dimethylformamide] + CC#N,,,,,,,,,,,,,"mass density ([2]; 293.15 K, x2 = 0): 949.1 ± 0.9 kg/m3; mass density ([2]; 298.15 K, x2 = 0): 944.6 ± 0.9 kg/m3; mass density ([2]; 303.15 K, x2 = 0): 940.1 ± 1 kg/m3; mass density ([2]; 308.15 K, x2 = 0): 935.7 ± 1 kg/m3; mass density ([2]; 313.15 K, x2 = 0): 931.2 ± 1 kg/m3; mass density ([2]; 318.15 K, x2 = 0): 926.7 ± 1.1 kg/m3"
CC#N [acetonitrile],782.1 ± 0.7,776.8 ± 0.7,771.5 ± 0.8,766.3 ± 0.8,761 ± 0.8,755.7 ± 0.9,,,,,,,
